Results reported in the NIST ThermoML archive (doi:10.1016/j.jct.2011.10.023).

Settings: Liquid, Vibrating tube method

CCCO [propan-1-ol]
mass density [kg/m3]
Settings	278.15 K	288.15 K	298.15 K	308.15 K	318.15 K	328.15 K	338.15 K	348.15 K	358.15 K
100 kPa	815.7	807.8	799.8	791.6	783.4	775	766.3	757.2	747.7
1000 kPa	816.4	808.5	800.5	792.4	784.2	775.9	767.2	758.3	748.8
5000 kPa	819.4	811.6	803.8	795.8	787.9	779.7	771.3	762.6	753.5
10000 kPa	822.8	815.3	807.6	800.1	792.2	784.2	776.1	767.7	758.8
15000 kPa	826.2	818.9	811.4	803.8	796.3	788.5	780.6	772.5	764
20000 kPa	829.4	822.3	814.9	807.5	800.2	792.6	784.9	777	768.7
25000 kPa	832.6	825.5	818.3	811.1	803.9	796.5	789	781.3	773.3
30000 kPa	835.7	828.7	821.6	814.5	807.5	800.2	792.9	785.4	777.5
35000 kPa	838.6	831.8	824.8	817.8	810.9	803.8	796.6	789.3	781.6
40000 kPa	841.5	834.7	827.9	821	814.2	807.2	800.2	793	785.5
45000 kPa	844.3	837.6	830.9	824.1	817.5	810.6	803.7	796.6	789.3
50000 kPa	847.1	840.4	833.8	827.1	820.5	813.8	807	800.1	792.9
55000 kPa	849.7	843.1	836.6	830	823.6	816.9	810.3	803.5	796.4
60000 kPa	852.1	845.6	839.2	832.7	825.8	819.8	813.4	806.5	799.6
